4 compounds from paper PMC5509744 (Scientific Reports, 2017) can be followed below.

Like-named read-outs stand apart in the source and are kept apart here.

For experiment [1], the target named is T1, PMM/PGM (Pseudomonas aeruginosa, UniProt P26276, S108C).
T1 construct: gene algC
The experiment is described as follows: biochemical.

Experiment [2] has as its target T1, PMM/PGM. To be noted: read-out: Apparent dissociation constant; 50 mM MOPS pH 7.4, 1 mM MgCl2, 310 K; unphosphorylated enzyme.

T1 sequence (P26276 whole entry S108C): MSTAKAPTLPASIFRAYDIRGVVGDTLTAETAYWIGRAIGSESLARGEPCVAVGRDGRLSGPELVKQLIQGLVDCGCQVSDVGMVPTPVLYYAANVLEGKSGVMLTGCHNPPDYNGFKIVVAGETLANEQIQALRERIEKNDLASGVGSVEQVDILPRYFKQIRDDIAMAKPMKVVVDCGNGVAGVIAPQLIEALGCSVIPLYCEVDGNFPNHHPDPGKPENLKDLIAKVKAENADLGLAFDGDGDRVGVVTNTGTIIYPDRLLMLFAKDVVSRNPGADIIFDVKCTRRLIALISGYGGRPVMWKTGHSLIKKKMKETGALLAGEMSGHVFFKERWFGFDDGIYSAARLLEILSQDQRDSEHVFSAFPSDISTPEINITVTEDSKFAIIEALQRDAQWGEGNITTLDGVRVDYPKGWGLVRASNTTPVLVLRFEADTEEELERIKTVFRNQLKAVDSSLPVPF

`O=P(O)(O)O[C@H]1O[C@H](CO)[C@@H](O)[C@H](O)[C@H]1O` [G1P, glucose 1-phosphate]: at PMM/PGM [1], the Kd came to 198 ± 48 µM. Take `O=P(O)(O)OC[C@H]1OC(O)[C@H](O)[C@@H](O)[C@@H]1O` (stereo partly shown) [G6P, glucose 6-phosphate]: on PMM/PGM [2], the Kd was determined as 20 ± 7 µM. `O=P(O)(O)OC[C@H]1O[C@H](OP(=O)(O)O)[C@H](O)[C@@H](O)[C@@H]1O` [G16P, glucose 1,6-bisphosphate] yielded a Kd at PMM/PGM [1] of 839 ± 221 µM. Same read-out and setting: then `O=P(O)(O)O[C@H]1OC[C@@H](O)[C@H](O)[C@H]1O` [X1P, xylose 1-phosphate], with 11 ± 9 µM.
